Assay results taken from US20240027435A1, “METHOD AND KIT FOR LABELING EUKARYOTIC CELLS FROM A MULTICELLULAR ORGANISM USING MODIFIED MONOSACCHARIDE COMPOUNDS AND PHARMACEUTICAL COMPOSITION COMPRISING SUCH CELLS” (THERAONCO, priority 2020, published 2024).

Assays:
Assay type in all cases: cell-based, Human
[1] = tested on: K562; test: Labelling of cells, fluorescence cancer/non cancer ratio: K562 vs Lymphocytes T; settings: fluorescence signal ratio; K562 (Blood, Chronic Myeloid Leukemia) vs Lymphocytes T; one doubling time (24 h)
Method: (§1) The cell lines were grown in suitable medium, supplemented by 10% fetal bovine serum (FBS) (VWR international S.A.S). The culture medium was changed every two days. The passaging of cells was performed using Tryp-LE express 1× (Gibco). The cell viability was estimated using trypan blue exclusion tests.
(§2) Cells were seeded in 24-well plates, at a density of 5×10^4 cells/well. Then, cells were incubated at 37° C., 5% CO2, during 24 hours. The culture media were adapted to the tested cells and supplemented by 10% fetal bovine serum (FBS). The incubation time corresponded to one doubling time of the tested cells. The fluorescence signal cancer/non cancer ratios were calculated based on fluorescence intensities obtained with Xylose-N3 or Ribose-N3 tested on cancer and corresponding non cancer cells.
(§3) The fluorescence assimilation of Xylose-N3 or Ribose-N3 probes was visualized by copper-free click chemistry using sulfo-DBCO-biotin (1 mM), followed by labeling with a mouse anti-biotin Alexa Fluor 488 antibody conjugate (0.62 mg/ml stock, Jackson ImmunoResearch, dilution 1/10). […]
(§4) The fluorescence acquisition was recorded using Olympus Microscopy IX83 (Olympus Life Science) equipped with a 60×/1.3 […]/1.4 SRI (silicone refractive index) objective, and Hamamatsu oreca flash 4 LT camera with 109 nm/pixel calibrated pixel size. […]

[2] = tested on: A549; test: Labelling of cells, fluorescence cancer/non cancer ratio: A549 vs Bronchial epithelial cell; settings: fluorescence signal ratio; A549 (Lung, Carcinoma) vs Bronchial epithelial cell; one doubling time (40 h)
Method: as §1, §2, §3, §4

[3] = tested on: HT29; test: Labelling of cells, fluorescence cancer/non cancer ratio: HT29 vs Colon epithelial cell; settings: fluorescence signal ratio; HT29 (colon, Colorectal adenocarcinoma) vs Colon epithelial cell; one doubling time (40 h)
Method: as §1, §2, §3, §4

[4] = tested on: DOHH-2; test: Labelling of cells, fluorescence cancer/non cancer ratio: DOHH-2 vs Isolated primary B cells; settings: fluorescence signal ratio; DOHH-2 (Blood, Diffuse large B-cell lymphoma germinal center B-cell type, 40-48 h) vs Isolated primary B cells
Method: as §1, §2, §3, §4

[5] = tested on: OCI-Ly3; test: Labelling of cells, fluorescence cancer/non cancer ratio: OCI-Ly3 vs Isolated primary B cells; settings: fluorescence signal ratio; OCI-Ly3 (Blood, Diffuse large B-cell lymphoma, 24 h) vs Isolated primary B cells
Method: as §1, §2, §3, §4

[6] = tested on: Kasumi-1; test: Labelling of cells, fluorescence cancer/non cancer ratio: Kasumi-1 vs B12-F8; settings: fluorescence signal ratio; Kasumi-1 (Blood, Acute Myeloid Leukemia, 48 h) vs B12-F8 (24 h); one doubling time
Method: as §1, §2, §3, §4

[7] = tested on: BL-2; test: Labelling of cells, fluorescence cancer/non cancer ratio: BL-2 vs Isolated primary B cells; settings: fluorescence signal ratio; BL-2 (Blood, non-endemic Burkitt lymphoma, 24 h) vs Isolated primary B cells
Method: as §1, §2, §3, §4

[8] = tested on: PANC; test: Labelling of cells, fluorescence cancer/non cancer ratio: PANC vs HPNE; settings: fluorescence signal ratio; PANC (Pancreas, Pancreatic carcinoma) vs HPNE; one doubling time (32 h)
Method: as §1, §2, §3, §4

[9] = tested on: MDA MB175; test: Labelling of cells, fluorescence cancer/non cancer ratio: MDA MB175 vs HME-1; settings: fluorescence signal ratio; MDA MB175 (Breast cancer) vs HME-1; one doubling time (30 h)
Method: as §1, §2, §3, §4

[10] = tested on: A431; test: Labelling of cells, fluorescence cancer/non cancer ratio: A431 vs Hacat; settings: fluorescence signal ratio; A431 (Skin, Epidermoid carcinoma) vs Hacat; one doubling time (30 h)
Method: as §1, §2, §3, §4

[11] = tested on: KCL22; test: Labelling of cells, fluorescence cancer/non cancer ratio: KCL22 vs Lymphocytes; settings: fluorescence signal ratio; KCL22 (Blood, chronic myelogenous leukemia) vs Lymphocytes; one doubling time (24 h)
Method: as §1, §2, §3, §4

[12] = tested on: MDA-MB-231; test: Labelling of cells, fluorescence cancer/non cancer ratio: MDA-MB-231 vs Breast epithelial cell; settings: fluorescence signal ratio; MDA-MB-231 (Breast adenocarcinoma) vs Breast epithelial cell; one doubling time (40 h)
Method: as §1, §2, §3, §4

[13] = tested on: AGS; test: Labelling of cells, fluorescence cancer/non cancer ratio: AGS vs Stomach epitelial cell; settings: fluorescence signal ratio; AGS (Stomach, Gastric adenocarcinoma) vs Stomach epitelial cell; one doubling time (30 h)
Method: as §1, §2, §3, §4

[14] = tested on: THP1; test: Labelling of cells with azido-monosaccharide probe, fluorescence cancer/non cancer ratio: THP1 vs Monocytes/Macrophages; settings: fluorescence signal ratio; THP1 (Blood, monocytic acute leukemia) vs Monocytes/Macrophages; incubation one doubling time (26 h)
Method: as §1, §2, §3, §4

[N-]=[N+]=NC[C@@H](O)[C@H](O)[C@@H](O)C=O [Xylose-N3, 5-azido-5-deoxy-xylose]
Cancer/Non Cancer Ratio [1]: 5
Cancer/Non Cancer Ratio [2]: 10
Cancer/Non Cancer Ratio [3]: 8
Cancer/Non Cancer Ratio [4]: 12
Cancer/Non Cancer Ratio [5]: 9
Cancer/Non Cancer Ratio [6]: 2
Cancer/Non Cancer Ratio [7]: 2
Cancer/Non Cancer Ratio [8]: 3
Cancer/Non Cancer Ratio [9]: 3
Cancer/Non Cancer Ratio [10]: 12
Cancer/Non Cancer Ratio [11]: 7
Cancer/Non Cancer Ratio [12]: 4
Cancer/Non Cancer Ratio [13]: 2
Cancer/Non Cancer Ratio [14]: 25
